According to US12209112B2, “Methods of preventing or treating diseases, conditions, or disorders associated with chemotherapy” (The Chinese University of Hong Kong, priority 2022, dated 2025):

Tests used:
C57BL/6J male mice [1] = assay type: in vivo, mouse; settings: mice; pretreatment before doxorubicin, versus doxorubicin only
Description: (§1) Recombinant human GDF15/MIC-1 protein (CHO-derived) was purchased from PeproTech Inc. (Cranbury, USA) and described in Example 1. […] For in vitro studies, solid lyophilized powder of these two drugs were solubilized at the recommended concentrations in sterile water, and separate aliquots were made and frozen until thawing prior to addition to cell cultures. For in vivo studies, all agents were dissolved in […] normal saline according to the required concentrations (doxorubicin, 5 mg/kg; GDF15, 0.5 mg/kg; dexrazoxane, […]), and the final volume of each intraperitoneal injection was 100 μl. The recommended dose ratio of dexrazoxane to doxorubicin was 10 to 1. In the following examples, 5 mg/kg of doxorubicin was used which correspond to 50 mg/kg of dexrazoxane. The FDA recommends that dexrazoxane be injected within 0.5 hour prior to doxorubicin infusion in individuals. This was followed in the same manner when applying to the test animals.
(§2) To induce cardiotoxicity in the mouse, four weekly intraperitoneal injections of doxorubicin at 5 mg/kg were administered. After one dose of doxorubicin at 5-6 mg/kg in a mouse, the level of exposure has been estimated to be similar to that of a human individual being given a standard dose of doxorubicin at approximately 60 mg/m^2. […]
The image processing and analysis software, ImageJ version 1.53K, was used for evaluation of histopathology from mouse experiments. For Masson's trichrome staining, the acquired images were converted from color to grayscale using ImageJ, the blue-stained collagen were segmented (separated) using thresholding, and the threshold areas in a representative microscopic field were quantified. […] Cells containing brown staining (TUNEL-positive cells) were counted in a representative microscopic field for each mouse in each group.

C57BL/6J male mice [2] = assay: Noninvasive blood pressure in mouse doxorubicin cardiotoxicity model; assay type: in vivo; settings: for Day 28 DBP / Day 28 SBP: after doxorubicin 5 mg/kg intraperitoneal once weekly for four weeks (Dox + groups); for Day 28 DBP / Day 28 SBP / Day 0 DBP / Day 0 SBP: n = 4 per group; for Day 0 DBP / Day 0 SBP: before doxorubicin administration
Source text: Recombinant human GDF15/MIC-1 protein (CHO-derived) was purchased from PeproTech Inc. (Cranbury, USA) and described in Example 1. […] PubChem identifier number 71384) were purchased from Abcam (Cambridge, UK). For in vitro studies, solid lyophilized powder of these two drugs were solubilized at the recommended concentrations in sterile water, and separate aliquots were made and frozen until thawing prior to addition to cell cultures. […] The recommended dose ratio of dexrazoxane to doxorubicin was 10 to 1. In the following examples, 5 mg/kg of doxorubicin was used which correspond to 50 mg/kg of dexrazoxane. The FDA recommends that dexrazoxane be injected within 0.5 hour prior to doxorubicin infusion in individuals. This was followed in the same manner when applying to the test animals. Ten- to twelve-week old C57BL/6J male mice were purchased from the Laboratory Animal Services Centre of CUHK. They were maintained in specific pathogen-free facility of the CUHK Laboratory Animal Services Centre Research Unit at Prince of Wales Hospital with free access to food and water and maintained in a light/night cycle of 12 hours/12 hours. All mice were fed a standard diet. Blood pressure of animals was measured using the noninvasive CODA® High Throughput System (Torrington, USA) in accordance with the manufacturer's instructions. Measurement platform was prewarmed and maintained at 33-35° C. O-cuffs and VPR-cuffs were used as instructed. Blood pressure of each mouse was measured for at least three cycles. Mice were released and returned to their cages immediately after measurement. Blood pressure was measured twice, once at the beginning of the experiment and once before sacrifice. To induce cardiotoxicity in the mouse, four weekly intraperitoneal injections of doxorubicin at 5 mg/kg were administered. After one dose of doxorubicin at 5-6 mg/kg in a mouse, the level of exposure has been estimated to be similar to that of a human individual being given a standard dose of doxorubicin at approximately 60 mg/m^2.

C57BL/6J male mice [3] = assay type: in vivo, mouse; settings: mice; pretreatment before doxorubicin
Description: as §1
To induce cardiotoxicity in the mouse, four weekly intraperitoneal injections of doxorubicin at 5 mg/kg were administered. After one dose of doxorubicin at 5-6 mg/kg in a mouse, the level of exposure has been estimated to be similar to that of a human individual being given a standard dose of doxorubicin at approximately 60 mg/m^2. Previous studies have shown that mice injected with doxorubicin once a week at 5 mg/kg for four weeks developed cardiotoxicity, as evidenced by decreased ventricular ejection fraction, cardiomyocyte apoptosis, histopathological changes consistent with doxorubicin-induced myocardial damage, and increased mortality rate, compared with the control group.
The hearts of mice were collected after sacrifice and fixed in 4% paraformaldehyde overnight, followed by paraffin embedding. Afterwards the hearts were cut into 4 μm thick slices. Sections were deparaffinized and rehydrated using sequential immersion in 100% alcohol, 95% alcohol and 70% alcohol for 15 minutes each. […]

C57BL/6J male mice [4] = assay: TUNEL staining of mouse myocardium (cardiomyocyte apoptosis); assay type: in vivo; settings: pretreatment before doxorubicin
Description: as §1, §2

hESC-CMs = assay: α-actinin immunostaining for sarcomeric integrity; assay type: cell-based, human; settings: hESC-CMs; agent only, no doxorubicin
Description: hESC-CMs were permeabilized using 0.1% Triton X-100 (Thermo Fisher Scientific, USA). After permeabilizing for 15 minutes, cells were washed three times in PBS, and further permeabilization was blocked by incubating cells in PBS with 10% FBS (Hyclone, USA) for 1 hour at room temperature. Cells were incubated with the primary anti-actinin antibody (1:400) (Abcam, UK) and diluted in PBS with 10% FBS overnight. Cells were then washed three times with PBS and incubated with a goat anti-mouse IgG1 secondary antibody (1:1000 diluted in PBS with 10% FBS) (Thermo Fisher Scientific, USA) for 1 hour at room temperature. Finally, cells were washed twice with PBS and mounted using ibidi mounting medium with DAPI (Ibidi, Germany). Microscopic images were acquired using the DMi8s Research Inverted Thunder Imager Live Cell System (Leica, Germany) at 20×, 40×, and 100× magnification.

Molecule	cardiac fibrosis (Masson's trichrome) (C57BL/6J male mice [1])	Day 28 DBP (C57BL/6J male mice [2])	Day 28 SBP (C57BL/6J male mice [2])	Day 0 DBP (C57BL/6J male mice [2])	Day 0 SBP (C57BL/6J male mice [2])	myocardial histopathology (hematoxylin and eosin) (C57BL/6J male mice [3])	cardiomyocyte death by apoptosis (TUNEL staining) (C57BL/6J male mice [4])	sarcomere structure (α-actinin immunostaining) (hESC-CMs)	systolic and diastolic blood pressures compared with Dex+Dox group (C57BL/6J male mice [2]; Day 28)
C[C@@H](CN1CC(=O)NC(=O)C1)N1CC(=O)NC(=O)C1.Cl [Dex, 4,4′-[(1S)-1-Methyl-1,2-ethanediyl]bis-2,6-piperazinedione hydrochloride, reference compound]	visually and quantitatively reduced	84 ± 15 mmHg	108 ± 13 mmHg	78 ± 26 mmHg	114 ± 14 mmHg	similarly improved	reduced extent of cardiomyocyte death by apoptosis	well-organized, striated sarcomeres	
GDF15 + Dox: mice given recombinant human GDF15 pretreatment followed by doxorubicin (protein, UniProt Q99988 195-308, looked up, given with doxorubicin) Growth/differentiation factor …: ARARNGDHCPLGPGRCCRLHTVRASLEDLGWADWVLSPREVQVTMCIGACPSQFRAANMHAQIKTSLHRLKPDTVPAPCCVPASYNPMVLIQKTDTGVSLQTYDDLLAKDCHCI		85 ± 13 mmHg	111 ± 15 mmHg	76 ± 25 mmHg	108 ± 27 mmHg				lower than that of Dex+Dox treatment group
